PubChem BioAssay (NCI)
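Five concentrations, 48 hours, 96-well plates. Abbreviation: GI50, concentration required for 50% inhibition of growth. TGI: concentration producing complete growth inhibition.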

Tests used:
Assay in all cases: NCI tumour cell line growth inhibition, 48 h
XF 498 CNS = test system: XF 498 CNS
P388/ADR leukemia = test system: P388/ADR leukemia
DLD-1 colon = test system: DLD-1 colon
KM20L2 colon = test system: KM20L2 colon
SN12K1 renal = test system: SN12K1 renal
M19-MEL melanoma = test system: M19-MEL melanoma
P388 leukemia = test system: P388 leukemia
DMS 114 small cell lung = test system: DMS 114 small cell lung
DMS 273 small cell lung = test system: DMS 273 small cell lung
SNB-78 CNS = test system: SNB-78 CNS
RXF-631 renal = test system: RXF-631 renal
LXFL 529 NSCLC = test system: LXFL 529 NSCLC

Compound	TGI (XF 498 CNS) [µM]	TGI (P388/ADR leukemia) [µM]	TGI (DLD-1 colon) [µM]	TGI (KM20L2 colon) [µM]	TGI (SN12K1 renal) [µM]	TGI (M19-MEL melanoma) [µM]	TGI (P388 leukemia) [µM]	TGI (DMS 114 small cell lung) [µM]	TGI (DMS 273 small cell lung) [µM]	TGI (SNB-78 CNS) [µM]	TGI (RXF-631 renal) [µM]	TGI (LXFL 529 NSCLC) [µM]	GI50 (KM20L2 colon) [µM]
C[C@]12CC[C@H](O)C=C1CC[C@@H]1[C@@H]2CC[C@]2(C)C(c3ccc(=O)oc3)CC[C@]12O (some centres undefined)	0.0505	125	0.0392	0.148	0.0201	0.071	125	< 0.0125	0.0427	0.503			
Cc1c2ccncc2c(C)c2c1[nH]c1ccccc12	3.29	4.32	2.33	5.89	3.37	2.16	2.89	3.09	2.22	7.88			
O=C1c2cccc(NCCNCCO)c2C(=O)c2cccc(NCCNCCO)c21	1.88		12.6	5.3				1.41	7.19	6.91	16.4	2.95	
O=C([CH-]C(=O)c1ccccc1)c1ccccc1.O=C([CH-]C(=O)c1ccccc1)c1ccccc1.[O]=[U+2]=[O]				12.4									2.65
CCCCC#CS(=O)(=O)C(F)(F)F	> 94.7	> 100	> 100	> 100	> 100		63.2	> 100	> 100	> 100			
